For eleven compounds, EC50 and Ki results are on record in US8501794B2, “Compounds as cannabinoid receptor ligands” (priority 2007, dated 2013).

In assay [1] the target is T1, rat CB2 (Rattus norvegicus, UniProt Q9QZN9).
T1 sequence (Q9QZN9 1-360): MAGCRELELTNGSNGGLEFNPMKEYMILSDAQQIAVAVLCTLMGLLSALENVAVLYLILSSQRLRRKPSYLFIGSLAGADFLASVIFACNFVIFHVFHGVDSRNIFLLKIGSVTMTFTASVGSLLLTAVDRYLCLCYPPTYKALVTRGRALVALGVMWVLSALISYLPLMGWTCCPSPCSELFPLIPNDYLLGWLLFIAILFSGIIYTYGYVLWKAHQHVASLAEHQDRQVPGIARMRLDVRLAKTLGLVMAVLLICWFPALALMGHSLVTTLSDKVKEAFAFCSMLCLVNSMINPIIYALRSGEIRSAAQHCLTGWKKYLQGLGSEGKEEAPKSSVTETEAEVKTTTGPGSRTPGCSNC
The experiment in a line: rat CB2 cyclase functional assay (HitHunter cAMP, HEK cells). The note with it: forskolin 18 μM. The format is cell-based. Also noted: expressed in transfected cells; host or cells: HEK.

For a further assay, the target named is T2, human CB2 receptors (Homo sapiens, UniProt P34972).
T2 construct: expressed in transfected cells; host or cells: HEK293
T2 sequence (P34972 whole entry): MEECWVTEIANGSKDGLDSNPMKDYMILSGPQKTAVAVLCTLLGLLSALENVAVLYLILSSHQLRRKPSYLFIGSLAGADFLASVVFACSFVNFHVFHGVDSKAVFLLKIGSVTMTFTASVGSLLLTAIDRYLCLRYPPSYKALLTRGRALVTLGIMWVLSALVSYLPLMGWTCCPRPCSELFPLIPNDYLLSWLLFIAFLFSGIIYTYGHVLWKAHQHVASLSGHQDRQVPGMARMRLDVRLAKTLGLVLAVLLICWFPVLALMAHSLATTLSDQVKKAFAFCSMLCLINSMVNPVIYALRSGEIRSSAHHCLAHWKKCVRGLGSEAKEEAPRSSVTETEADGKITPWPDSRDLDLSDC
The experiment in a line: human CB2 radioligand binding assay ([3H]CP-55,940 competition).

Assay [2] addresses T1, rat CB2. Description: rat CB2 radioligand binding assay ([3H]CP-55,940 competition). Also noted: expressed in transfected cells; host or cells: HEK293.
Setting [3] is: HEK293 membranes, 0.5 nM [3H]CP-55,940, read-out: human CB2 (Ki).

Like-named read-outs stand apart in the source and are kept apart here.

The term EC50 denotes the concentration at which the effect is half-maximal. In general, Ki refers to a dissociation constant, usually derived from enzyme kinetics or from competition with a known ligand. `CCCCc1cn(C(C)(C)C)s/c1=N\C(=O)[C@]1(C)CC[C@H](C(=O)NCC)C1(C)C` [Example 201, (1R,3S)—N^1-[(5Z)-4-butyl-2-tert-butylisothiazol-5(2H)-ylidene]-N^3-ethyl-1,2,2-trimethylcyclopentane-1,3-dicarboxamide] gave an EC50 at rat CB2 [1] of 3.5 nM. Besides, the Ki at human CB2 receptors amounted to 180 nM.
With `CCCCc1cn(C(C)(C)C)s/c1=N\C(=O)[C@@H]1CC[C@](C)(C(=O)OC)C1(C)C` [Example 204, Methyl (1S,3R)-3-({[(5Z)-4-butyl-2-tert-butylisothiazol-5(2H)-ylidene]amino}carbonyl)-1,2,2-trimethylcyclopentanecarboxylate], on rat CB2 [1], a half-maximal effect (EC50) was put at 0.34 nM. Moreover, the affinity on human CB2 receptors corresponds to a Ki of 0.6 nM.
For `CCCCc1cn(C(C)(C)C)s/c1=N\C(=O)[C@]1(C)CC[C@H](C(=O)NCCO)C1(C)C` [Example 203, (1R,3S)—N^1-[(5Z)-4-butyl-2-tert-butylisothiazol-5(2H)-ylidene]-N^3-(2-hydroxyethyl)-1,2,2-trimethylcyclopentane-1,3-dicarboxamide], the concentration giving a half-maximal response (EC50) at rat CB2 [1] was 3.9 nM. Moreover, on human CB2 receptors, the Ki was 70 nM.
In the same order, the values of `CCCCc1cn(C(C)(C)C)s/c1=N\C(=O)[C@@H]1CC[C@](C)(C(=O)O)C1(C)C` [Example 205, (1S,3R)-3-({[(5Z)-4-butyl-2-tert-butylisothiazol-5(2H)-ylidene]amino}carbonyl)-1,2,2-trimethylcyclopentanecarboxylic acid] are 11.7 nM and 21 nM.
On to `CCCCc1cn(C(C)(C)C)s/c1=N\C(=O)[C@]1(C)CC[C@H](C(=O)NC[C@H]2CCCO2)C1(C)C` [Example 214, (1R,3S)—N^1-[(5Z)-4-butyl-2-tert-butylisothiazol-5(2H)-ylidene]-1,2,2-trimethyl-N^3-[(2R)-tetrahydrofuran-2-ylmethyl]cyclopentane-1,3-dicarboxamide], for which the figures for the Ki on rat CB2 [2] and at human CB2 receptors were 83 nM and 130 nM, respectively.
In the same order, the values of `COc1ccc(Cl)cc1C(=O)/N=c1\sn(C(C)(C)C)cc1Cc1cccs1` [Example 54, N-[(5Z)-2-tert-butyl-4-(thien-2-ylmethyl)isothiazol-5(2H)-ylidene]-5-chloro-2-methoxybenzamide] are 1 nM and 17 nM.
With `CCCCc1cn(C(C)(C)C)s/c1=N\C(=O)c1cc(CF)ccc1OC` [Example 66, N-[(5Z)-4-butyl-2-tert-butylisothiazol-5(2H)-ylidene]-5-(fluoromethyl)-2-methoxybenzamide], the Ki on rat CB2 [2] amounted to 12 nM; at human CB2 receptors (setting [3]) it was 103 nM.
Take `CCCCc1cn(C(C)(C)C)s/c1=N\C(=O)[C@@]1(C)CC[C@@H](NC(=O)c2ccccc2)C1(C)C` [Example 255, N-[(1R,3S)-3-({[(5Z)-4-butyl-2-tert-butylisothiazol-5(2H)-ylidene]amino}carbonyl)-2,2,3-trimethylcyclopentyl]benzamide]: the Ki on rat CB2 [2] was 69 nM; at human CB2 receptors, 25 nM.
Turning to `COc1ccc(Cl)cc1C(=O)/N=c1\sn(C(C)(C)C)cc1COC[C@H]1CCCO1` [Example 89, N-[(5Z)-2-tert-butyl-4-{[(2R)-tetrahydrofuran-2-ylmethoxy]methyl}isothiazol-5(2H)-ylidene]-5-chloro-2-methoxybenzamide], the figures for the Ki on rat CB2 [2] and on human CB2 receptors (setting [3]) were 7.9 nM and 190 nM, respectively.
As for `COc1ccc(Cl)cc1C(=O)/N=c1\sn(C(C)(C)C)cc1C(O)CC1CCC1` (stereo not shown) [Example 33, N-[(5Z)-2-tert-butyl-4-(2-cyclobutyl-1-hydroxyethyl)isothiazol-5(2H)-ylidene]-5-chloro-2-methoxybenzamide], the Ki at rat CB2 [2] is 1 nM; on human CB2 receptors, 3.7 nM.
For `CCCCc1cn(C(C)(C)C)s/c1=N\C(=O)[C@@]1(C)CC[C@@H](C2=NCCO2)C1(C)C` [Example 231, (1S,3R)—N-[(5Z)-4-butyl-2-tert-butylisothiazol-5(2H)-ylidene]-3-(4,5-dihydro-1,3-oxazol-2-yl)-1,2,2-trimethylcyclopentanecarboxamide], the Ki at rat CB2 [2] is 11 nM; on human CB2 receptors, 51 nM.
